Laboratory results from PubChem BioAssay AID330 (DTP/NCI, 2004).
“And” between values parts separate entries of the source, which are not always exact repeats. Identical values can stand only once. Inconclusive results and toxic doses are left out.

System: P388 leukemia ip, CD2F1 mice, survival T/C
Test: NCI In Vivo Anticancer Drug Screen. Data for tumor model P388 Leukemia (intraperitoneal) in CD2F1 (CDF1) mice
Conditions: endpoint: median survival time, higher = longer survival
In short: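 Mice carrying the transplanted tumor received test compound or vehicle. Survival was recorded in each group, and the value is the treated-group measurement divided by that of the vehicle-treated control group.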

[1] = dose: 400.0 mg/kg/injection, schedule: Q04DX003 (ip), vehicle: saline with Tween-80
[2] = dose: 100.0 mg/kg/injection, schedule: Q04DX003 (ip), vehicle: saline with Tween-80
[3] = dose: 200.0 mg/kg/injection, schedule: Q04DX003 (ip), vehicle: saline with Tween-80
[4] = dose: 50.0 mg/kg/injection, schedule: Q01DX005 (ip), vehicle: Klucel (hydroxypropylcellulose) (HPC)
[5] = dose: 100.0 mg/kg/injection, schedule: Q01DX005 (ip), vehicle: Klucel (hydroxypropylcellulose) (HPC)
[6] = dose: 200.0 mg/kg/injection, schedule: Q01DX005 (ip), vehicle: Klucel (hydroxypropylcellulose) (HPC)
[7] = dose: 50.0 mg/kg/injection, schedule: Q01DX009 (ip), vehicle: Klucel (hydroxypropylcellulose) (HPC)
[8] = dose: 100.0 mg/kg/injection, schedule: Q01DX009 (ip), vehicle: Klucel (hydroxypropylcellulose) (HPC)
[9] = dose: 200.0 mg/kg/injection, schedule: Q01DX009 (ip), vehicle: Klucel (hydroxypropylcellulose) (HPC)
[10] = dose: 60.0 mg/kg/injection, schedule: Q01DX005 (ip), vehicle: saline with Tween-80
[11] = dose: 120.0 mg/kg/injection, schedule: Q01DX005 (ip), vehicle: saline with Tween-80
[12] = dose: 240.0 mg/kg/injection, schedule: Q01DX005 (ip), vehicle: saline with Tween-80
[13] = dose: 120.0 mg/kg/injection, schedule: Q01DX005 (ip), vehicle: Klucel (hydroxypropylcellulose) (HPC)
[14] = dose: 240.0 mg/kg/injection, schedule: Q01DX005 (ip), vehicle: Klucel (hydroxypropylcellulose) (HPC)

## CCN(CCNc1ccc(CO)c2sc3ccccc3c(=O)c12)CC(C)(C)O
dose: 265.0 mg/kg/injection, schedule: Q04DX003 (ip), vehicle: saline with Tween-80
  T/C: 123 % of control
[1]
  T/C: 159 % of control
dose: 600.0 mg/kg/injection, schedule: Q04DX003 (ip), vehicle: saline with Tween-80
  T/C: 185 % of control

## CCCCCn1c(Cl)c(/C=N\Nc2cccc([N+](=O)[O-])c2)c2ccccc21
[2]
  T/C: 100 % of control
[3]
  T/C: 91 % of control
[1]
  T/C: 90 % of control

## O=C1NCC(CCl)O1 (stereo not given)
dose: 60.0 mg/kg/injection, schedule: Q01DX005 (ip), vehicle: saline
  T/C: 100 % of control
dose: 120.0 mg/kg/injection, schedule: Q01DX005 (ip), vehicle: saline
  T/C: 101 % of control
dose: 240.0 mg/kg/injection, schedule: Q01DX005 (ip), vehicle: saline
  T/C: 102 % of control

## Cc1nc2cc3ccccc3cc2nc1C
[4]
  T/C: 100 % of control
[5]
  T/C: 99 % of control
[6]
  T/C: 100 % of control

## COc1cc2c(c(OC)c1OC)CCCC2=O
[7]
  T/C: 111 % of control
[8]
  T/C: 113 % of control
[9]
  T/C: 117 % of control

## COC(=O)c1cc2[n+](cc1C(=O)OC)CCc1cc3c(cc1-2)OCO3
dose: 0.63 mg/kg/injection, schedule: Q01DX009 (ip), vehicle: water
  T/C: 99 % of control
dose: 1.25 mg/kg/injection, schedule: Q01DX009 (ip), vehicle: water
  T/C: 97 % of control
dose: 2.5 mg/kg/injection, schedule: Q01DX009 (ip), vehicle: water
  T/C: 97 % of control
dose: 5.0 mg/kg/injection, schedule: Q01DX009 (ip), vehicle: water
  T/C: 106 % of control
dose: 10.0 mg/kg/injection, schedule: Q01DX009 (ip), vehicle: water
  T/C: 99 % of control
dose: 20.0 mg/kg/injection, schedule: Q01DX009 (ip), vehicle: water
  T/C: 92 % of control

## c1ncn(Sn2cncn2)n1
dose: 8.75 mg/kg/injection, schedule: Q01DX005 (ip), vehicle: Klucel (hydroxypropylcellulose) (HPC)
  T/C: 100 % of control
dose: 17.5 mg/kg/injection, schedule: Q01DX005 (ip), vehicle: Klucel (hydroxypropylcellulose) (HPC)
  T/C: 101 % of control
dose: 35.0 mg/kg/injection, schedule: Q01DX005 (ip), vehicle: Klucel (hydroxypropylcellulose) (HPC)
  T/C: 104 % of control

## N#CCCN(CCC#N)P(=O)(N(CCC#N)CCC#N)N(CCC#N)CCC#N
[4]
  T/C: 100 % of control
[5]
  T/C: 96 % of control
[6]
  T/C: 100 % of control

## Cc1nc2c(cc1C#N)C(NCCO)Oc1ccccc1-2 (stereo not given)
[10]
  T/C: 97 % of control
[11]
  T/C: 97 % of control
[12]
  T/C: 99 % of control

## CCC(c1ccc(OC)cc1)C(NC(=S)Nc1ccc(Cl)cc1)c1ccc(OC)cc1 (stereo not given)
dose: 100.0 mg/kg/injection, schedule: Q01DX001 (ip), vehicle: saline with Tween-80
  T/C: 90 % of control
dose: 200.0 mg/kg/injection, schedule: Q01DX001 (ip), vehicle: saline with Tween-80
  T/C: 90 % of control
dose: 400.0 mg/kg/injection, schedule: Q01DX001 (ip), vehicle: saline with Tween-80
  T/C: 109 % of control

## N#CC1(Nc2ccccc2)CCCCC1
dose: 6.25 mg/kg/injection, schedule: Q01DX009 (ip), vehicle: saline with Tween-80
  T/C: 90 % of control
dose: 12.5 mg/kg/injection, schedule: Q01DX009 (ip), vehicle: saline with Tween-80
  T/C: 95 % of control
dose: 25.0 mg/kg/injection, schedule: Q01DX009 (ip), vehicle: saline with Tween-80
  T/C: 90 % of control

## CSC#CC(Sc1c(Cl)c(Cl)c(Cl)c(Cl)c1Cl)=C(Sc1c(Cl)c(Cl)c(Cl)c(Cl)c1Cl)Sc1c(Cl)c(Cl)c(Cl)c(Cl)c1Cl
dose: 50.0 mg/kg/injection, schedule: Q01DX009 (ip), vehicle: saline with Tween-80
  T/C: 99 % of control
dose: 100.0 mg/kg/injection, schedule: Q01DX009 (ip), vehicle: saline with Tween-80
  T/C: 93 % of control
dose: 200.0 mg/kg/injection, schedule: Q01DX009 (ip), vehicle: saline with Tween-80
  T/C: 92 % of control

## Nc1[nH]c(=S)[nH]c(=O)c1NS(=O)(=O)c1ccccc1
dose: 30.0 mg/kg/injection, schedule: Q01DX005 (ip), vehicle: Klucel (hydroxypropylcellulose) (HPC)
  T/C: 104 % of control and 106 % of control
[13]
  T/C: 98 % of control and 97 % of control
[14]
  T/C: 98 % of control and 108 % of control

## O=[N+]([O-])c1ccc(N/N=C(\C(=N/Nc2ccc([N+](=O)[O-])cc2[N+](=O)[O-])c2ccccc2)c2ccccc2)c([N+](=O)[O-])c1
dose: 50.0 mg/kg/injection, schedule: Q04DX003 (ip), vehicle: saline with Tween-80
  T/C: 103 % of control
[2]
  T/C: 91 % of control
[3]
  T/C: 91 % of control

## CCOCC(=O)OCC
dose: 100.0 mg/kg/injection, schedule: Q01DX009 (ip), vehicle: saline
  T/C: 105 % of control
dose: 200.0 mg/kg/injection, schedule: Q01DX009 (ip), vehicle: saline
  T/C: 101 % of control
dose: 400.0 mg/kg/injection, schedule: Q01DX009 (ip), vehicle: saline
  T/C: 102 % of control

## O=c1[nH]c2cc(Cl)ccc2nc1/C=C(\O)c1ccc(O)cc1
[10]
  T/C: 102 % of control
[11]
  T/C: 95 % of control
[12]
  T/C: 95 % of control

## O=C1CNC(=O)C12C(=O)CNC2=O
dose: 100.0 mg/kg/injection, schedule: Q04DX002 (ip), vehicle: saline with Tween-80
  T/C: 98 % of control
dose: 200.0 mg/kg/injection, schedule: Q04DX002 (ip), vehicle: saline with Tween-80
  T/C: 96 % of control
dose: 400.0 mg/kg/injection, schedule: Q04DX002 (ip), vehicle: saline with Tween-80
  T/C: 98 % of control

## Cc1ccc(C2OC3=C(Nc4ccc([N+](=O)[O-])cc4N3)C2=O)cc1 (stereo not given)
dose: 60.0 mg/kg/injection, schedule: Q01DX005 (ip), vehicle: Klucel (hydroxypropylcellulose) (HPC)
  T/C: 90 % of control
[13]
  T/C: 93 % of control
[14]
  T/C: 96 % of control

## CN=c1nc2n3c(cccc3n1)NC(C)=N2
[10]
  T/C: 100 % of control
[11]
  T/C: 92 % of control
[12]
  T/C: 99 % of control

## CC1(C)SC2C(NC(=O)C(N)c3ccccc3)C(=O)N2C1C(=O)O (stereo not given)
[2]
  T/C: 95 % of control
dose: 150.0 mg/kg/injection, schedule: Q01DX009 (ip), vehicle: saline with Tween-80
  T/C: 100 % of control
[3]
  T/C: 100 % of control
dose: 300.0 mg/kg/injection, schedule: Q01DX009 (ip), vehicle: saline with Tween-80
  T/C: 109 % of control
[1]
  T/C: 100 % of control
dose: 600.0 mg/kg/injection, schedule: Q01DX009 (ip), vehicle: saline with Tween-80
  T/C: 109 % of control

## CCOC(=O)COc1cc2c(cc1Cc1ccc(OC)cc1)OCO2
dose: 50.0 mg/kg/injection, schedule: Q01DX005 (ip), vehicle: saline with Tween-80
  T/C: 97 % of control
dose: 100.0 mg/kg/injection, schedule: Q01DX005 (ip), vehicle: saline with Tween-80
  T/C: 92 % of control

## O=C1CC(C2(c3ccc4c(c3)OCO4)SCCCS2)CO1 (stereo not given)
dose: 100.0 mg/kg/injection, schedule: Q01DX001 (ip), vehicle: Klucel (hydroxypropylcellulose) (HPC)
  T/C: 101 % of control
dose: 200.0 mg/kg/injection, schedule: Q01DX001 (ip), vehicle: Klucel (hydroxypropylcellulose) (HPC)
  T/C: 106 % of control
dose: 400.0 mg/kg/injection, schedule: Q01DX001 (ip), vehicle: Klucel (hydroxypropylcellulose) (HPC)
  T/C: 99 % of control

## NC(=O)NN(Cc1ccc2c(c1)OCO2)N=O
[7]
  T/C: 99 % of control
[8]
  T/C: 107 % of control
[9]
  T/C: 91 % of control

## S=C(Nc1ccc(N=Nc2ccccc2)cc1)SCc1ccccc1
dose: 100.0 mg/kg/injection, schedule: Q04DX003 (ip), vehicle: saline
  T/C: 98 % of control
dose: 200.0 mg/kg/injection, schedule: Q04DX003 (ip), vehicle: saline
  T/C: 92 % of control
dose: 400.0 mg/kg/injection, schedule: Q04DX003 (ip), vehicle: saline
  T/C: 91 % of control

## Cc1ccc(S(=O)(=O)C(Cl)(SCl)Sc2ccccc2)cc1 (stereo not given)
[7]
  T/C: 95 % of control
[8]
  T/C: 93 % of control
[9]
  T/C: 93 % of control

## COc1cc(C)c(/C=C/C(C)=C/c2cc(C)cc(=O)o2)c(C)c1C
dose: 25.0 mg/kg/injection, schedule: Q01DX005 (ip), vehicle: Klucel (hydroxypropylcellulose) (HPC)
  T/C: 86 % of control
[4]
  T/C: 88 % of control
[5]
  T/C: 86 % of control and 92 % of control

## CCC[As](CCC)SC1OC(C2COC(C)(C)O2)C2OC(C)(C)OC12 (stereo not given)
dose: 12.5 mg/kg/injection, schedule: Q01DX009 (ip), vehicle: distilled water + Tween-80
  T/C: 100 % of control
dose: 25.0 mg/kg/injection, schedule: Q01DX009 (ip), vehicle: distilled water + Tween-80
  T/C: 110 % of control
